Measurements from article PMC5522996, “Big conductance calcium‐activated potassium channel openers control spasticity without sedation” (British Journal of Pharmacology, 2017).
Entries after “also recorded” stand apart in the source; their conditions may differ.

Legend:
CYP450 2D6 = target: T1, CYP450 2D6 (Homo sapiens, UniProt P10635); test: CYP450 inhibition of dextromethorphan substrate in liver microsomes; type: in vitro ADME; conditions: read-out: IC50 Inhibition of substrate binding, VSN16R
T1 construct: from tissue; host or cells: liver microsomes
T1 sequence (P10635 whole entry): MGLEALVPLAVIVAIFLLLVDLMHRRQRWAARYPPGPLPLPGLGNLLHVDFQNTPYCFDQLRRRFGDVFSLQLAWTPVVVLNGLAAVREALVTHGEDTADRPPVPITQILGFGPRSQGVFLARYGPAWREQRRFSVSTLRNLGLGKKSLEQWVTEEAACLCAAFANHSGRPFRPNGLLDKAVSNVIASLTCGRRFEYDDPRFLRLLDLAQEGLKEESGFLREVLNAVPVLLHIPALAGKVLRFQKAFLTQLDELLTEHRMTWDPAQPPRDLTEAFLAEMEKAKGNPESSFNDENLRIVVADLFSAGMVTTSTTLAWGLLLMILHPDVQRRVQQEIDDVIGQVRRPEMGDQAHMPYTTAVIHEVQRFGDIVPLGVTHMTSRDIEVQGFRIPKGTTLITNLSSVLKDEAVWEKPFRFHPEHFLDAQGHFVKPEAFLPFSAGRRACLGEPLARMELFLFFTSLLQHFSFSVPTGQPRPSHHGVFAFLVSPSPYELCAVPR
Text: (§1) Inhibition of binding of either 3-cyano-7-ethoxycoumarin, dibenzylfluorescein or 7-benzyoxy-4-
(§2) (trifluoromethyl) coumarin in human enzyme transfected BTI NN-5B1-4 cells or Sf9 insect cells or
(§3) inhibition of dextromethorphan substrate to CYP450 2D6 in liver microsomes.

[1] = system: spastic ABH mice with EAE; test: Hoffman (H) reflex electrophysiology in spastic animals; type: in vivo, mouse; conditions: 30mg/kg i.v.
κ = target: T2, κ (Homo sapiens, UniProt P41145); test: Receptor binding profile of VSN16R; conditions: 10µM VSN16R
T2 construct: purchased Cerep; Chantest; DiscoveRx; Multispan; MDS Pharma Services

β1 = target: T3, β1 (Homo sapiens, UniProt P08588); test: Receptor binding profile of VSN16R; conditions: 10µM VSN16R
T3 construct: purchased Cerep; Chantest; DiscoveRx; Multispan; MDS Pharma Services

CYP450 2C8 = target: T4, CYP450 2C8 (Homo sapiens, UniProt P10632); test: CYP450 inhibition of substrate binding; type: in vitro ADME; conditions: read-out: IC50 Inhibition of substrate binding, VSN16R
T4 construct: host or cells: BTI NN-5B1-4 or Sf9 insect cells
T4 sequence (P10632 whole entry): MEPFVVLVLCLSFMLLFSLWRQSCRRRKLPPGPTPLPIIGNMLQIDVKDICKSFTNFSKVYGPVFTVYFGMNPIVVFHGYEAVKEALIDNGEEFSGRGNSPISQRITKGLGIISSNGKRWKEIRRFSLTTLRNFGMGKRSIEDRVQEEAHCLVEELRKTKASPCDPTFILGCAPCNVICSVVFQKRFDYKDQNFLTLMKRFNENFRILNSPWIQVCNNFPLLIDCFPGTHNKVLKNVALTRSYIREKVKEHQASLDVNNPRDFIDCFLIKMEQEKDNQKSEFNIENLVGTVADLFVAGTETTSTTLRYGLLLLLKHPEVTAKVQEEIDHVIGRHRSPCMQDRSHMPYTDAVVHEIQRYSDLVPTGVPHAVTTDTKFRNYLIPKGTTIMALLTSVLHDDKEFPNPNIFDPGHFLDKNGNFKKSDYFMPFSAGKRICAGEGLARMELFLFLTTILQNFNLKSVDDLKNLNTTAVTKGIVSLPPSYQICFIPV
Text: as §1, §2, §3

5-HT7 = target: T5, 5-HT7 (Homo sapiens, UniProt P34969); test: Receptor binding profile of VSN16R; conditions: 10µM VSN16R
T5 construct: purchased Cerep; Chantest; DiscoveRx; Multispan; MDS Pharma Services
T5 sequence (P34969 whole entry): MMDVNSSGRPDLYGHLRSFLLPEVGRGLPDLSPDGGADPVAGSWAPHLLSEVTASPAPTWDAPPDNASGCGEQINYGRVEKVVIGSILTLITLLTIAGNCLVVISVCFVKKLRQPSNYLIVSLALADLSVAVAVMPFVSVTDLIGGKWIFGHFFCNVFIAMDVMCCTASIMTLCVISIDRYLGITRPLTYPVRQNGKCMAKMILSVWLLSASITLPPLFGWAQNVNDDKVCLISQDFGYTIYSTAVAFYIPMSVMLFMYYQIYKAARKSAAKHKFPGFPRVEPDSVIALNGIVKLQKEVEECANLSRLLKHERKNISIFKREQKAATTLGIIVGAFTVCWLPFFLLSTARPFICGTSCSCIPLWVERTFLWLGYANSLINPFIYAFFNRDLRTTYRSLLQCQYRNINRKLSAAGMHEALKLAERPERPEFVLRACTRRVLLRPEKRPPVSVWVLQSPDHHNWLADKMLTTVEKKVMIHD

Y2 = target: T6, Y2 (Homo sapiens, UniProt P49146); test: Receptor binding profile of VSN16R; conditions: 10µM VSN16R
T6 construct: purchased Cerep; Chantest; DiscoveRx; Multispan; MDS Pharma Services
T6 sequence (P49146 whole entry): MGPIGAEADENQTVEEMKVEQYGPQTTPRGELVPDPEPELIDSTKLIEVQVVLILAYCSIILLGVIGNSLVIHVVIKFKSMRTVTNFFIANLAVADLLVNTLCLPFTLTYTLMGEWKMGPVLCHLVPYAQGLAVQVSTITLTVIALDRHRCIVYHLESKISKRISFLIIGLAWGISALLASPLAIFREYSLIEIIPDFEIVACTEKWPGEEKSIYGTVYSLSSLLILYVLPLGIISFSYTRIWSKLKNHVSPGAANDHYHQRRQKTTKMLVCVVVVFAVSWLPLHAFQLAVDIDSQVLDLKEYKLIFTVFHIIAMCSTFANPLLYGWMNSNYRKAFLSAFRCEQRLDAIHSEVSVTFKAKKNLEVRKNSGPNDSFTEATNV

EDG5 = target: T7, EDG5 (Homo sapiens, UniProt O95136); test: Receptor binding profile of VSN16R; conditions: 10µM VSN16R
T7 construct: purchased Cerep; Chantest; DiscoveRx; Multispan; MDS Pharma Services
T7 sequence (O95136 whole entry): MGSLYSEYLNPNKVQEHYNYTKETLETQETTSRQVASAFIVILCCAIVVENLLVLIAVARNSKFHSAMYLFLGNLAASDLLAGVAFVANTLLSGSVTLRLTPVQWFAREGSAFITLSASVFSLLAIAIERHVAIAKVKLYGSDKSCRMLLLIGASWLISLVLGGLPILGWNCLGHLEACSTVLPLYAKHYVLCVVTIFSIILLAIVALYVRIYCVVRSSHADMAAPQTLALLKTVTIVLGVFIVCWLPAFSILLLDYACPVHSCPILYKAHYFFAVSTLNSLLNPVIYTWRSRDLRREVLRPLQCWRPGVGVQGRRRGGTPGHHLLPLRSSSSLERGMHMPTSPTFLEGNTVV

WP2uvvA = test: Bacterial reverse mutation, revertants per plate; type: cell-based, Escherichia coli
Procedure: Strain of Organism Treatment Dose Revertants per plate
First Mutation without Metabolic Stimulation
Second Mutation without Metabolic Stimulation
VSN16R was incubated at various concentrations with either TA1535, TA1537, TA98 and TA100 strains of Salmonella typhimurium, which carry mutations in genes involved in histidine synthesis, and WP2uvvA Escherichia coli. The bacteria are spread on agar plates with limiting histidine content and incubated for 48 h. The number of histidine gene negative to positive revertants was assessed in two experiments. The results represent the mean ± SD. n=3/group. This was performed by Charles

CYP450 2B6 = CYP450 2B6 (Homo sapiens, UniProt P20813)
Sequence of CYP450 2B6 (P20813 whole entry): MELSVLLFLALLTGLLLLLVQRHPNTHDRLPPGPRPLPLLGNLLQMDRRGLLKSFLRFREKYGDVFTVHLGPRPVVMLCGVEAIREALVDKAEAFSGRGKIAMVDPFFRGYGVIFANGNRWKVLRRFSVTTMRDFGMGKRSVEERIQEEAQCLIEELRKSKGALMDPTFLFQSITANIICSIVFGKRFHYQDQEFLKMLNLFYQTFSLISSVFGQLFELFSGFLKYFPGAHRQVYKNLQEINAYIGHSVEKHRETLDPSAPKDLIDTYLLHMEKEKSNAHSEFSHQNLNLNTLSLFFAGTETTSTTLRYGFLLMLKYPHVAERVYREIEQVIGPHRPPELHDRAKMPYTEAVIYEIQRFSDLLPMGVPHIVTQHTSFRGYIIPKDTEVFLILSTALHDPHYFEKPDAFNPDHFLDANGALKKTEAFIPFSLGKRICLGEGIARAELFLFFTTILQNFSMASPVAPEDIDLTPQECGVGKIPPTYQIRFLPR
Text: as §1, §2, §3

[2] = system: Ca2+ channel (L verapamil site); test: Receptor binding profile of VSN16R; parameters: species or system human; conditions: 10µM VSN16R
5-HT1A = target: T8, 5-HT1A (Homo sapiens, UniProt P08908); test: Receptor binding profile of VSN16R; conditions: 10µM VSN16R
T8 construct: purchased Cerep; Chantest; DiscoveRx; Multispan; MDS Pharma Services
T8 sequence (P08908 whole entry): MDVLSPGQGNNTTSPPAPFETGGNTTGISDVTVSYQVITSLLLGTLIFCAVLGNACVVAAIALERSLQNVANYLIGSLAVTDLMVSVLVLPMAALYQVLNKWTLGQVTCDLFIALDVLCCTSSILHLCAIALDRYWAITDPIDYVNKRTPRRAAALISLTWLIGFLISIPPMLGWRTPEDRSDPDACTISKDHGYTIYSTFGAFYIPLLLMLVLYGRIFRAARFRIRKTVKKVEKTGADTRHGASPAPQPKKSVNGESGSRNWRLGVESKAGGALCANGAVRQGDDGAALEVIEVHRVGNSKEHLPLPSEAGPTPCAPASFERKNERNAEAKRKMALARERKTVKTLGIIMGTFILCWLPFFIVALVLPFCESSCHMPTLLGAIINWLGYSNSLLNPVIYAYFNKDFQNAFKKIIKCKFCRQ

mouse vas deferens = test: βγ‐methylene ATP‐induced contraction of electrically unstimulated vas deferens; type: cell-based; conditions: 100 nM, 30 min before βγ‐methylene ATP
ETA = target: T9, ETA (Homo sapiens, UniProt P25101); test: Receptor binding profile of VSN16R; conditions: 10µM VSN16R
T9 construct: purchased Cerep; Chantest; DiscoveRx; Multispan; MDS Pharma Services
T9 sequence (P25101 21-427): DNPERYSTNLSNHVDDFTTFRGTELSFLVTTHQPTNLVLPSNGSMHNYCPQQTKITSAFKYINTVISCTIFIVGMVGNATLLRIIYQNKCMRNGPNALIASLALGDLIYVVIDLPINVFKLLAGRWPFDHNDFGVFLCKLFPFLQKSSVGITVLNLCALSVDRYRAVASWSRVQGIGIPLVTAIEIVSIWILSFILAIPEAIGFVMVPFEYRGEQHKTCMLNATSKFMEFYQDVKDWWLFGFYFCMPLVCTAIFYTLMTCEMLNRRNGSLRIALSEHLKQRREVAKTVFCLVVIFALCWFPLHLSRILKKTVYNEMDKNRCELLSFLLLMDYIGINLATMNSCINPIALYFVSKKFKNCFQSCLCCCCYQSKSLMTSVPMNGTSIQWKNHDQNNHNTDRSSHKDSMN

CYP450 2E1 = target: T10, CYP450 2E1 (Homo sapiens, UniProt P05181); test: CYP450 inhibition of substrate binding; type: in vitro ADME; conditions: read-out: IC50 Inhibition of substrate binding, VSN16R
T10 construct: host or cells: BTI NN-5B1-4 or Sf9 insect cells
T10 sequence (P05181 whole entry): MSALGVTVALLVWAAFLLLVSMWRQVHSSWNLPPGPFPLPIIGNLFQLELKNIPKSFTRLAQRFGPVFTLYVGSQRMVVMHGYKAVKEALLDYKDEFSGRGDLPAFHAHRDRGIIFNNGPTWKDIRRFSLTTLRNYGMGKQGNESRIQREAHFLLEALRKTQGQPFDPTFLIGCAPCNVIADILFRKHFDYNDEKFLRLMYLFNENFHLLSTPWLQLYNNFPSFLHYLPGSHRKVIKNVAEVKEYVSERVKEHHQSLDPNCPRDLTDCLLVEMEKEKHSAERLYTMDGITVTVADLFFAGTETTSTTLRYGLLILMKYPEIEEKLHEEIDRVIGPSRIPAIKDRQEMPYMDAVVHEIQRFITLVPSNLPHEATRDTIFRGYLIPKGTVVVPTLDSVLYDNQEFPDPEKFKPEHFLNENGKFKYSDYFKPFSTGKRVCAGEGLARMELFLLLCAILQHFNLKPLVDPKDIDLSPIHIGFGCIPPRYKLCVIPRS
Text: as §1, §2, §3

5-HT6 = target: T11, 5-HT6 (Homo sapiens, UniProt P50406); test: Receptor binding profile of VSN16R; conditions: 10µM VSN16R
T11 construct: purchased Cerep; Chantest; DiscoveRx; Multispan; MDS Pharma Services
T11 sequence (P50406 whole entry): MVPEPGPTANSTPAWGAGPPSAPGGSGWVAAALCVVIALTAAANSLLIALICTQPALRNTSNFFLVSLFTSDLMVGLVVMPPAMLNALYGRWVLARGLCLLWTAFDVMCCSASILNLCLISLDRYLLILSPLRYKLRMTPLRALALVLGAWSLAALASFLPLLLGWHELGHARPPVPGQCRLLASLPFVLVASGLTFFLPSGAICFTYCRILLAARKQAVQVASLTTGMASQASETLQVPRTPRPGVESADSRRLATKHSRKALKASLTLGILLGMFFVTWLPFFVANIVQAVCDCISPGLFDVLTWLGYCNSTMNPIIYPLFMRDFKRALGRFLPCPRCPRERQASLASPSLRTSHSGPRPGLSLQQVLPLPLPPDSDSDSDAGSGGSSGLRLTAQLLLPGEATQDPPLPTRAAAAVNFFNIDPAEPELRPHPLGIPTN

normal animals = test: Muscle tone in normal animals (resistance to flexion); type: in vivo, mouse; conditions: 40 mg·kg^−1 p.o.
A1 = target: T12, A1 (Homo sapiens, UniProt P30542); test: Receptor binding profile of VSN16R; conditions: 10µM VSN16R
T12 construct: purchased Cerep; Chantest; DiscoveRx; Multispan; MDS Pharma Services

GPR6 = target: T13, GPR6 (Homo sapiens, UniProt P46095); test: Receptor binding profile of VSN16R; conditions: 10µM VSN16R
T13 construct: purchased Cerep; Chantest; DiscoveRx; Multispan; MDS Pharma Services
T13 sequence (P46095 whole entry): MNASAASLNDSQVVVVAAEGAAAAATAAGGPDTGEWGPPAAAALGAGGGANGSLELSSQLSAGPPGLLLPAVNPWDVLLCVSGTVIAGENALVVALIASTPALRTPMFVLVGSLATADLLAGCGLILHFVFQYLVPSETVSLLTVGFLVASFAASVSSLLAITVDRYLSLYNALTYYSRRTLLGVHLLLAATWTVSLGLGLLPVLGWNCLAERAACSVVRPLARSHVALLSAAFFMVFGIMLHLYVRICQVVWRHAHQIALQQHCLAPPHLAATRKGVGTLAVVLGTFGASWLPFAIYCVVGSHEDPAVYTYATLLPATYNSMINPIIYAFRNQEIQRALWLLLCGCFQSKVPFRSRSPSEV

Pharmacokinetics in rats = type: in vivo, rat
Procedure: The stability of compounds when subjected to hepatic and plasma degradation was assessed in vitro by Inpharmatica, Cambridge, UK. Compounds (1 μM) were incubated with either pooled mouse liver microsomes (0.1 mg protein mL^−1) or pooled mouse plasma at 37°C for 0, 5, 10, 20 and 40 min before termination with acetonitrile containing warfarin as an analytical internal standard. Samples were centrifuged, and the resultant supernatant analysed for parent compound. The mass responses at baseline were taken as the 100% reference values against which the disappearance of the compound was measured. The natural log of the % remaining values was used to generate linear plots of disappearance of the compounds. Half‐life values were calculated from the slope of these plots. Hepatocyte metabolism was assessed by Cyprotex, Macclesfield, and 10 μM VSN16R was incubated with primary mouse, rat, monkey (Macaque) and human hepatocytes for 1 h, and the presence of metabolites was assessed using liquid […] mass spectroscopy. The stability of VSN16R was assessed in vivo by Inpharmatica, Cyprotex and Charles Rivers, Cambridge. Blood (plasma) samples were obtained prior to and 5 min to 24 h after drug administration of 2–5 mg·kg^−1 i.v. or 5 mg·kg^−1 p.o. VSN16R into outbred mice and rats (n = 3 per time point). In addition, plasma, brain and spinal cord samples were obtained from ABH with spastic EAE. Immediately after blood collection, the brain and spinal cord were removed and then stored at −20°C prior to assay. Tissue samples were weighed, homogenized and centrifuged, and the lysates generated. Brain lysates and plasma were assayed by LC–MS methods by Inpharmatica/Charles Rivers, Cambridge, UK. This was also performed using a Waters Xevo TQ or API4000, AB Sciex mass spectrometer using spiked samples as standards. PK Solutions Software (Summit Research Services, Montrose, CO, USA), AB Sciex Analyst software combined with Thermo Fisher Scientific Watson LIMS processing and reporting software or WinNonLin pharmacokinetic or PK solutions 2.0 software (Summit Research Services, Montrose CO, USA) were used to produce PK parameters. Data are expressed as mean ± SEM. The detection limit of VSN16R was 2 ng·mL^−1 in plasma and brain and 14 ng·mL^−1 in spinal cords. The detection limit of VSN22R was 2 ng·mL^−1 in plasma and 0.1 ng·mL^−1 for VSN44R in plasma. Pharmacokinetics in toxicological samples in rats (n = 6 per group), dogs (n = 6 per group) and humans (n = 6 per group) were performed by Charles Rivers (Edinburgh, UK).

[3] = first 12 h following p.o. dosing of rats

In the case of `C[C@H](CO)NC(=O)c1cccc(/C=C\CCCC(=O)N(C)C)c1` [VSN16R], the IC50 (CYP450 2D6) is reported as > 30 µM, the “Animals with H reflex inhibited” value [1] is reported as 3/5 and the Activity (κ) is reported as “Negligible Activity”. For the same molecule, the Activity (β1) was “Negligible Activity”, the IC50 (CYP450 2C8) was > 10 µM and the Activity (5-HT7) was “Negligible Activity”. The Activity (Y2) was “Negligible Activity”, the Activity (EDG5) was “Negligible Activity” and the Revertants per plate (WP2uvvA; First Mutation without Metabolic Stimulation, 17µg) was 5.3 ± 0.6. The Revertants per plate (WP2uvvA; First Mutation without Metabolic Stimulation, 5000µg) was 1.3 ± 1.2, the Revertants per plate (WP2uvvA; Second Mutation without Metabolic Stimulation, 17µg) was 10.3 ± 6.7 and the Revertants per plate (WP2uvvA; Second Mutation without Metabolic Stimulation, 5000µg) was 8.0 ± 4.6. The IC50 (CYP450 2B6) was > 10 µM, the Activity [2] was “Negligible Activity” and the Activity (5-HT1A) was “Negligible Activity”. For the same molecule, the “Effect on βγ‐methylene ATP‐induced contractions” value (mouse vas deferens) was “does not inhibit; also recorded: did not affect”, the Activity (ETA) was “Negligible Activity” and the IC50 (CYP450 2E1) was > 10 µM. The Activity (5-HT6) was “Negligible Activity”, the “Change (increase) of muscle tone from baseline” value (normal animals) was 9.1 ± 6.3% and the Activity (A1) was “Negligible Activity”. For the same molecule, the Activity (GPR6) was “Negligible Activity”, the Faecal elimination (Pharmacokinetics in rats; [3]) was “approximately 1 % of the dose” and the Renal excretion (Pharmacokinetics in rats; [3]) was “less than 0.5 % of the dose”. The bioavailability (Pharmacokinetics in rats; in vivo, po, 5 mg·kg^−1 p.o., rat) was 40% and the half-life (Pharmacokinetics in rats; rat, plasma, po, 5 mg·kg^−1 p.o., rats, read-out: Elimination half‐life) was 43 min.
